Source: article PMC4557752, “EST-based in silico identification and in vitro test of antimicrobial peptides in Brassica napus” (BMC Genomics, 2015)

How the values were obtained:
M. luteus ACCC11001 = assay: radial diffusion assay against M. luteus (G+ strain); type: cell-based, Micrococcus luteus; design: G+ strain halo diameter: unit not given here; details: for G+ strain halo diameter: radial diffusion, M. luteus ACCC11001 approx 2 x 10^6 cfu/mL in 1 % agarose underlay gel, 3.5 mm holes, 100 μL AMP sample, 37 °C 12 h, diameter of clear zone, performed in triplicate, '-' = no zone
Description: (§1) Purified His-EDDIE-AMPs inclusion bodies were refolded by rapid 1:50 dilution in an optimized refolding buffer (500 mM NaCl, 20 mM Tris, 2 mM EDTA, 5 % glycerol, 10 mM DTT, 0.01 % Tween-20, pH 7.5) and incubated at an appropriate temperature without stirring. During refolding, EDDIE restored its correct conformation and self-cleaved at the specific sites, releasing AMPs from the fusion bodies. Renatured protein solution was then clarified by centrifugation at 15,000 x g at 4 °C for 30 min. The insoluble sample was removed by filtering through a 0.45 μm membrane, leaving the AMPs in the supernatant. The supernatants were transferred to a Ni-NTA His-bind column for purification.
(§2) The antimicrobial activities of recombinant AMPs were detected using a radial diffusion assay. E. coli ATCC2592 and M. luteus ACCC11001 were grown on the mid-logarithmic phase and washed. Approximately 2 × 10^6 cfu/mL bacteria were incorporated into a thin (1.2 mm) agarose underlay gel containing 1 % (w/v) agarose. Holes with 3.5 mm diameter were punched into the solidified agarose and were filled with 100 μL of AMP sample. After the plates were incubated at 37 °C for 12 h, the diameter of the clear zone surrounding each well was measured to evaluate the antimicrobial activity. The refolding buffer was used as negative controls. The above assays were performed in triplicate.

E. coli ATCC2592 = assay: radial diffusion assay against E. coli (G- strain); type: cell-based, Escherichia coli; design: G- strain halo diameter: unit not given here; details: for G- strain halo diameter: radial diffusion, E. coli ATCC2592 approx 2 x 10^6 cfu/mL in 1 % agarose underlay gel, 3.5 mm holes, 100 μL AMP sample, 37 °C 12 h, diameter of clear zone, performed in triplicate, '-' = no zone
Description: as §1, §2

S. sclerotiorum = assay: antifungal radial diffusion assay on potato plates; type: cell-based, Sclerotinia sclerotiorum; details: PDA/potato plates, 200 μL sample beside the fungi, 22 °C 72 h; refolding buffer control
Description: as §1
The antifungal activity of the purified products was assayed using an ultra-sensitive radial diffusion method on thin potato plates (200 g potato, 20 g glucose, 15–20 g agar powder, 1 L double-distilled water) seeded with filamentous fungi. Briefly, 9-cm plates were poured with an underlay potato medium, and S. sclerotiorum on a 1-cm diameter potato medium were seeded on the center of the plates, which were then incubated at 22 °C until hypha grew to 2 cm in diameter. Two hundred microliters of the test sample and negative control (refolding buffer) was placed beside the filamentous fungi, and the plates were incubated at 22 °C for 72 h; the size of the clear area around the filamentous fungi was then measured.

| Sequence | G+ strain halo diameter (M. luteus ACCC11001) | G- strain halo diameter (E. coli ATCC2592) | antimicrobial activity to Gram positive strains (in words) (M. luteus ACCC11001; radial diffusion assay, M. luteus, refolding buffer as negative control) | antimicrobial activity to Gram negative strains (in words) (E. coli ATCC2592; radial diffusion assay, E. coli, refolding buffer as negative control) | growth of the filamentous fungal strain S. sclerotiorum (in words) (S. sclerotiorum) |
| --- | --- | --- | --- | --- | --- |
| ALTCGTVNSNVAPCIGYITQGGPLPGACCTG [Bn27, recombinant B. napus AMP candidate, 31 aa] | 2.044 | 1.756 |  |  |  |
| CAPNHCCSQFGYCGTNDAHCGAGCKS [Bn29, recombinant B. napus AMP candidate] |  | 1.7 |  |  |  |
| PPTQNPSMAPPTQNPYGQPMAPPTQNPYGQPMAPP [Bn19, recombinant B. napus AMP, 35 aa; new member of the proline-rich antimicrobial peptide family, similar to SP-B] | 3.022 | 3.011 | highest activities | highest activities |  |
| AITCGTVTSSLAPCATLSSSGGEMPPPLCGGCAGVKKLNGMAQTTADRQ [Bn7, recombinant B. napus AMP candidate, 49 aa] |  | 1.311 |  |  |  |
| AVTCNNVVGDLYPCLSYVMRGGNAPSTNCCNGVRTLNSQAQTTADRQSVCRCIKNA [Bn21, recombinant B. napus AMP candidate, 56 aa] | 1.867 | 1.711 |  |  |  |
| NWCGGKCEVRCKDVGMNDRCLKYCGICCKECKC [Bn20, recombinant B. napus AMP candidate, 33 aa] | 1.089 | 1.489 |  |  |  |
| GRKAGGPKNKSVSKSIKAGLQFPVGRITRFLKKGRYAQRLGGERREIRLLTKPE [Bn1, recombinant B. napus AMP candidate, 54 aa] | 1.633 | 1.256 |  |  |  |
| NICCSQYGYCGTTADYCSPDNNCQSNC [Bn15, recombinant B. napus AMP candidate, 27 aa] | 0.944 |  |  |  |  |
| RVCNTQSHHYRGPCWRNHNCAMVCRTEGFSGGDCVGIPRRCYCTKRC [Bn16, recombinant B. napus AMP candidate, 47 aa] | 1.322 |  |  |  |  |
| EQCGRQAGGALCPNGLCCSNLAGAAIPNRIANRPVARASVAA [Bn2, recombinant B. napus AMP candidate, 42 aa] | 1.067 | 1.189 |  |  |  |
| QNCGCAPNLCCSQFGYCGSTDAYRDWLP [Bn25, recombinant B. napus AMP candidate, 28 aa] | 0.367 | 1.567 |  |  |  |
| NQCGQFVSGALINTCCCLFKCG [Bn23, recombinant B. napus AMP candidate, 22 aa] | 1.233 | 0.756 |  |  |  |
| RTCESRSHRFKGPCVSENNCANVCHT [Bn24, recombinant B. napus AMP candidate, 26 aa] | 0.967 |  |  |  |  |
| VVCDKSYTCPDKSTCCCVSESKGKCDSWGCCPFESATCCENGSSCCP [Bn10, recombinant B. napus AMP candidate, 47 aa] | 1.2 | 1.722 |  |  |  |
| CASGVGCSQYGYCGNGPDYCG [Bn28, recombinant B. napus AMP candidate, 21 aa] | 1.089 | 0.867 |  |  |  |
| IQCGKFFSCSEINTCCCLFKCGKYYFGWGCCPLEASTCCDDNTSCCP [Bn22, recombinant B. napus AMP candidate] |  | 0.433 |  |  |  |
| EQCGRRRVERCSRMAVLCEFGWCGDTEPYCKQTGCQSQCGG [Bn3, recombinant B. napus AMP candidate, 41 aa] | 1.811 | 1.867 |  |  |  |
| GKPSGSEKDKDKKKQPITRSARAGLQFPVGRVHRLLK [Bn5, recombinant B. napus AMP candidate, 37 aa] | 2.2 | 1.711 |  |  |  |
| KTHEEKSKTYRRLCVDETGCNHACIFNEHFAGGHCRHLECFC [Bn17, recombinant B. napus AMP candidate, 42 aa] | 0.178 | 0.467 |  |  |  |
| ALTCGTVNSNVARALAILPRGDRCPERAAPAKAN [Bn26, recombinant B. napus AMP candidate, 34 aa] | 1.489 | 1.533 |  |  |  |
| LQFPVGRISRYLKKGRYAIRYGAGAP [Bn30, recombinant B. napus AMP candidate, 26 aa] | 1.4 | 1.289 |  |  | grow normally |
| KTCCPTTTARRIFDSCYGPSVPLTFCARISGCHLFPQSTTCPPEFP [Bn18, recombinant B. napus AMP candidate, 46 aa] | 0.107 | 1.978 |  |  |  |
| RMCETSSQLFNGPCLSTNCANICQNEGFPDGDCKGFRLRCICNRPC [Bn13, recombinant B. napus AMP candidate, 46 aa] | 1.722 | 2.222 |  |  |  |
| RCREASRKKVCYRAGGSCCAKCQCVPPGTSGNTASCPCYANLRTHGNKLKCP [Bn4, recombinant B. napus AMP candidate, 52 aa] | 2.167 | 2.122 |  |  |  |
| KECEERSRQSRSFSVICKYDYACQNHCINLEKADGGQCNSRSPTAKCICYFQC [Bn8, recombinant B. napus AMP candidate, 53 aa] | 2.056 | 1.656 |  |  |  |
| YVCTRVDCSGRCKGRCNKSSRPNLCLRACNSCCFRCNCVPPPGTHGNHHLRPCYASITT [Bn14, recombinant B. napus AMP candidate, 59 aa] | 2.489 | 2.589 |  |  |  |
